Activity calls are given as the source filed them. The rule behind the calls is not given here.

Results on one compound are retold here after ChEMBL document CHEMBL2424584, “Novel cross-link breaker based on zwitterion structure: synthesis, structure and druggability studies” (Eur J Med Chem, 2013).

The species named for the assay is Rattus norvegicus. As to the kind of experiment: Reversible of increased arterial stiffness associated with diabetes in rat. The format is functional, organism-based.

For `Cc1csc[n+]1CC(=O)[O-]`, the outcome was Active.
